# Experimental data: patent US8961930B2, “Isatin derivatives for use as in vivo imaging agents” (Imperial Innovations Limited, priority 2008, dated 2015)
# Legend:
# RIF-1 xenograft = assay: In vivo [^18F]11 biodistribution and PET imaging, RIF-1 xenograft; design: species or system mice; conditions: for 60 min biodistribution, Bone / 60 min biodistribution, Kidney / 60 min biodistribution, L. Intestine / 60 min biodistribution, Liver / 60 min biodistribution, Lung / 60 min biodistribution, Muscle / 60 min biodistribution, S. Intestine / 60 min biodistribution, Spleen / 60 min biodistribution, Tumour: RIF-1
# Excerpt: In vivo tumour models were established by subcutaneous injection of PEO1/4 (10×10^6 cells, with v/v matrigel, BD Biosciences, Oxford, UK), RIF-1 (5×10^5 cells) and LNM35 (1×10^6 cells) on the back of 6-8 weeks old female nu/nu-BALB/c or male C3H/hej mice (Harlan, Bicester, Oxfordshire, UK). Tumour growth was monitored every two days using electronic callipers, and tumour volume estimated using (π/6)×L×W×D (L=length, W=width and D=depth). All animal work was done by licensed investigators in accordance with the United Kingdom's “Guidance on the Operation of Animals (Scientific Procedures) Act 1986” (HMSO, London, United Kingdom, 1990) and in full compliance with government regulations and guidelines on the welfare of animals in experimental neoplasia.
# For biodistribution studies, tumour-bearing mice were treated with 10 mg/kg cisplatin or vehicle for 24 h, anesthetized with isofluorane/O2/N2O and injected i.v. in the lateral tail vein with ˜100 μCi [^18F]11 for the indicated time. The different tissues were removed, weighted and placed in counting tubes for immediate Fluorine-18 radioactivity counting.
# Tumour-bearing mice treated with Cisplatin (10 mg/kg for 24 h) or vehicle were scanned on a dedicated small animal PET scanner (quad-HIDAC; Oxford Positron Systems, Weston-on-the-Green, United Kingdom). Anesthetized animals were placed within a thermostatically controlled bed and positioned prone within the scanner. The bed was calibrated to provide a mouse rectal temperature of ˜37° C. A bolus injection of [^18F]11 (˜100 μCi) was given intravenously (i.v.) via the tail vein cannula and scanning commenced. Dynamic emission scans were acquired in list-mode format over 60 minutes. The acquired data were then sorted into 0.5-mm sinogram bins and 19 time frames (0.5×0.5×0.5 mm voxels; 4×15, 4×60, and 11×300 seconds) for image reconstruction, which was done by filtered back projection using a two-dimensional Hamming filter (cutoff 0.6). The image data-sets obtained were transferred to a SUN workstation (Ultra 10; SUN Microsystems, Santa Clara, Calif.) and visualized using the Analyze software (version 6.0; Biomedical Imaging Resource, Mayo Clinic, Rochester, Minn.). Cumulative images of the dynamic data composed of 0 to 1 minute after injection and 30 to 60 minutes after injection were used for visualization of radiotracer uptake and to define the regions of interest (ROI). The count densities were averaged for each ROI at each of the 19 time points to obtain a time versus radioactivity curve (TAC) for the ROIs. Tumour TAC was normalized to that of heart at each of the time points to obtain the normalized uptake value (NUV). The [^18F]9 data from […] were used as internal input function for normalizing tumour data. […] FRT is a useful variable in that it indicates the proportion of radiotracer delivered to the tumour that is retained. It therefore normalizes tumor [^18F]9 uptake to delivery.
# RIF-1 tumor was treated with vehicle (50% DMSO) or CDDP (10 mg/kg single dose). The [^18F]-derived radioactivity levels at 60 min post radiotracer injection were analysed and expressed as a ratio to that of blood. […] 1.5-fold increase in uptake of [^18F]11 for treated mice over vehicle treated mice. Data are mean±SEM and n=8 mice per group.
# LNM35 cells = assay: In vitro [^18F]11 uptake in LNM35 cells; type: cell-based, human; conditions: 100 μM CDDP or VP-16, 60 min uptake
# Excerpt: The human ovarian carcinoma cell lines PEO1/4 were established and characterised as described in Wolf C. R. et al.^22 and Langdon S. P. et al^23. Briefly, PEO1/4 cells were derived from the malignant ascites of a patient with a recurrent mucinous ovarian adenocarcinoma, before (PEO1) and after (PEO4) the onset of a clinical resistance to cisplatin chemotherapy in this patient. The radiation-induced murine fibrosarcoma (RIF-1) tumour cell line was originally characterised by Twentyman P. R. et al.^20. The LNM35 tumour cells are a highly lymphogenous metastatic subline of the human large pulmonary carcinoma NCI-H460 cell line, as described in Kozaki K. et al.^24. […]
# Cells were plated in triplicate in 12-well plates 2 or 3 days prior to the experiments and treated with the antineoplastic platinum-derived drug Cisplatin, 5-FU, the protein synthesis inhibitor cycloheximide (CHX) or the topoisomerase inhibitor etoposide (VP-16) (Sigma, UK) or corresponding vehicle at the indicated concentration and time. […] 260 μL of each sample were transferred in counting tubes and Fluorine-18 radioactivity was immediately determined using a Packard Cobra II gamma counter (Perkin Elmer, UK). […] BCA Protein assay (Pierce, UK) was performed for all samples and datas are normalized and expressed as CCPMA or RLU (Relative Light Unit)/mg of protein.
compound,measurement,setting,value
"O=C1C(=O)N(Cc2cn(CC[18F])nn2)c2ccc(S(=O)(=O)N3CCC[C@H]3COc3ccc(F)cc3F)cc21 [[^18F]11, (S)-1-((1-(2-Fluoroethyl)-1H-[1,2,3]-triazol-4-yl)methyl)-5-(2(2,4-difluorophenoxymethyl)-pyrrolidine-1-sulfonyl)isatin]","60 min biodistribution, Bone",RIF-1 xenograft; CDDP treated,1.78 ± 1.72
same,"60 min biodistribution, Bone",RIF-1 xenograft; Control,1.06 ± 0.49
same,PET image: uptake in the tumour,"RIF-1 xenograft; CDDP-treated mouse, RIF-1 xenograft, 30-60 min",significant uptake
same,"60 min biodistribution, Kidney",RIF-1 xenograft; CDDP treated,5.50 ± 2.59
same,"60 min biodistribution, Kidney",RIF-1 xenograft; Control,8.49 ± 2.00
same,"60 min biodistribution, L. Intestine",RIF-1 xenograft; CDDP treated,2.88 ± 1.52
same,"60 min biodistribution, L. Intestine",RIF-1 xenograft; Control,2.66 ± 0.67
same,"60 min biodistribution, Liver",RIF-1 xenograft; CDDP treated,10.58 ± 4.64
same,"60 min biodistribution, Liver",RIF-1 xenograft; Control,11.36 ± 2.39
same,"60 min biodistribution, Lung",RIF-1 xenograft; CDDP treated,3.23 ± 0.43
same,"60 min biodistribution, Lung",RIF-1 xenograft; Control,4.47 ± 1.00
same,"60 min biodistribution, Muscle",RIF-1 xenograft; CDDP treated,1.09 ± 0.54
same,"60 min biodistribution, Muscle",RIF-1 xenograft; Control,1.76 ± 1.33
same,"increase in tumour uptake (ratio to blood), treated over vehicle treated mice","RIF-1 xenograft; RIF-1 tumour, CDDP 10 mg/kg single dose, 60 min post injection",~1.5 fold
same,"60 min biodistribution, S. Intestine",RIF-1 xenograft; CDDP treated,11.08 ± 6.00
same,"60 min biodistribution, S. Intestine",RIF-1 xenograft; Control,14.93 ± 12.68
same,"60 min biodistribution, Spleen",RIF-1 xenograft; CDDP treated,1.85 ± 0.76
same,"60 min biodistribution, Spleen",RIF-1 xenograft; Control,1.85 ± 0.19
same,"60 min biodistribution, Tumour",RIF-1 xenograft; CDDP treated,1.31 ± 1.04
same,"60 min biodistribution, Tumour",RIF-1 xenograft; Control,0.96 ± 0.10
same,[^18F]11 uptake in drug-treated cells compared to control,LNM35 cells,significantly increased
